Article PMC6017844, “4-Thiazolidinone Derivatives as MMP Inhibitors in Tissue Damage: Synthesis, Biological Evaluation and Docking Studies” (Molecules : A Journal of Synthetic Chemistry and Natural …, 2018)
Like-named read-outs stand apart in the source and are kept apart here.

What was measured:
[1] = target: T1, human recombinant MMP-9 (Homo sapiens, UniProt P14780); test: MMP-9 fluorimetric assay; assay type: biochemical
T1 construct: using 10 nM of proteolytic enzyme (catalytic domains of MMP-9 (Biomol, Inc.)); purchased Biomol, Inc
T1 sequence (P14780 107-444 limits assumed): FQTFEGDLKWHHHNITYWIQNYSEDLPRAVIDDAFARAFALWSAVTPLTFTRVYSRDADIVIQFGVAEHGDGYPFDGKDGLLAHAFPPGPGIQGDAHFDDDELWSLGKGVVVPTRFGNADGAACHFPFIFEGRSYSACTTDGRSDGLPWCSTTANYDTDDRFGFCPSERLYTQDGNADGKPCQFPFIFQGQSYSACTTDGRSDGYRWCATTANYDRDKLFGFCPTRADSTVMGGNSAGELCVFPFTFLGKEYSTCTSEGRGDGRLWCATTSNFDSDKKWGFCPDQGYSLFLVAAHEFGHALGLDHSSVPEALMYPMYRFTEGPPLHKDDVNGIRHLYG
Procedure: The synthesized compounds 13–19, 22 and 23 were tested for their in vitro ability to inhibit human recombinant MMP-9. Table 2 reports the results of this inhibition assay, expressed as IC50 (µM). […] We used as positive control a potent MMPs inhibitor, NNGH (N-isobutyl-N-(4-methoxy-phenylsulfonyl)glycylhydroxamic acid).
The compounds were evaluated for their ability to inhibit the hydrolysis of fluorescence-quenched peptide substrate Mca-Pro-Leu-Gly-Leu-Dpa-Ala-Arg-NH2 (Biomol, Inc., Enzo Life Sciences, Inc., Farmingdale, NY, USA). The MMP-9 assays were performed in 50 mM HEPES buffer containing 5 mM CaCl2, 0.1 mM ZnCl2, 0.05% Brij-35, at pH 7, using 10 nM of proteolytic enzyme (catalytic domains of MMP-9 (Biomol, Inc.) and 350 nM of peptide substrate. The enzyme was incubated at 25 °C with increasing concentration (0.0004, 0.004, 0.04, 0.4, 4, 40, 400 µM) of compounds, and the fluorescence (excitation max 328 nm; emission max 393 nm) was measured for 3 min after the addition of the substrate using a Victor Wallac 1420 Multilabel Counters fluorimeter (Perkin Elmer, Waltham, MA, USA). The fluorescence values of the samples were plotted against the time with a linear regression fit, using the Origin software, version 7 (Origin Lab Corporation, Northampton, MA, USA). The slope of the line value for each inhibitor concentrations was obtained where an increase of the slope corresponds to a decrease of inhibitory activity. Subsequently, the IC50 values were obtained from a non-linear regression procedure (log inhibitor vs. response) with a variables slope of the regression line (Y) and the molar inhibitor concentration (X), using the software Origin®7 (Origin Lab Corporation). The IC50 value was obtained from the equation Y = P1/(1 + X/P2). NNGH (N-Isobutyl-N-(4-methoxyphenylsulfonyl)glycylhydroxamic acid) a potent MMPs inhibitor was used as a positive control.

[2] = Oxygen Radical Absorbance Capacity (ORAC) assay; conditions: for ORAC UNITs: fluorescein 10 nM, AAPH 100 mM, 37 °C, pH 7.0, mean ± SD (n = 3), Trolox = 1 ORAC Units
Description: Free radicals and ROS are highly reactive molecules that are generated by normal cellular processes. They react with cellular components, damaging DNA, carbohydrates, proteins, and lipids causing cellular and tissue injury. Although organisms have developed complex antioxidant systems to protect themselves from oxidative substances, an excess of ROS production can lead to inflammation and several disease state. ORAC test measures both lipophilic and hydrophilic antioxidant capacity and determines the ability of antioxidants to protect proteins from damage caused by free radicals. ORAC assay has been widely accepted as a standard in vitro to measure the antioxidant activity of synthetic compounds, measuring their capacity to transfer hydrogen atom. The assay measures the loss of fluorescence over time due to peroxyl-radical formation by the breakdown of 2,2′-azobis-2-methyl-propanimidamide dihydrochloride (AAPH). 6-Hydroxy-2,5,7,8-tetramethylchroman-2-carboxylic acid (Trolox), a water soluble vitamin E analog, is a positive control that inhibits the fluorescein decay in a dose dependent manner. The ORAC assay is a kinetic assay measuring fluorescein decay and antioxidant protection over time.
The ORAC assay was performed as previously reported by Cao et al.. The measurements were carried out on a Wallac 1420 Victor^3 96-well plate reader (EG & Wallac, Turku, Finland) with fluorescence filter ([…]). Fluorescein (10 nM) was the fluorescence probe and target molecule for free radical attack from AAPH (100 mM) as peroxyl radical generator. The reaction was conducted at 37 °C at pH 7.0 with Trolox (12.5 μM) as control standard and phosphate buffer as blank. Compounds 13–19 and 22–23 were appropriately diluted with DMSO/buffer (1:10) prior to analysis. The fluorescein fluorescence was recorded every 2 min after addition of AAPH. All measurements were expressed relative to the initial reading. One blank, one standard, and a maximum of 10 samples were analyzed at the same time. Each measure was repeated at least three times. The ORAC value refers to the net protection area under the quenching curve of fluorescein in the presence of an antioxidant. The final results (ORAC value) were calculated and expressed using Trolox equivalents (TE) per gram of extract (TE/g):ORAC value (μM) = K(S sample − S blank)/(S Trolox − S blank)(1) where K is a sample dilution factor, S is the area under the fluorescence decay curve of the sample, Trolox or blank. This area was calculated with Origin®7 (OriginLab Corporation, Northampton, MA, USA).

[3] = system: NF-κB; test: NF-κB levels by Western blot analysis; assay type: cell-based, human; conditions: NCTC 2544 stimulated with IFN-γ and histamine, 10 µM, 48 h, in words
Description: The treatment of keratinocyte cell line NCTC 2544 with 200 U/mL of IFN-γ and 10^−4 M of H increased NF-κB levels compared to untreated cells. IFN-γ is an essential cytokine in amplifying inflammatory reactions, as it stimulates the synthesis of chemokines that attract inflammatory cells and induces expression of molecules important for the retention and activation of T cells. We employed both IFN-γ and histamine because they use distinct signal transduction pathways, and this can lead to a stronger activation of inflammatory genes. […] Stimulated keratinocytes were treated with compounds 22 and 23 and the levels of NF-κB were measured after 48 h. […]
The normal human keratinocyte cell line NCTC 2544 was provided by Interlab Cell Line Collection Genoa (Genova, Italy) and cultured in Minimum Essential Medium (MEM) (Sigma-Aldrich, Milan, Italy) containing 10% fetal calf serum, 100 U/mL penicillin and 100 μg/mL streptomycin at 37 °C in a humidified, 95% air/5% CO2 atmosphere. […] A day before the experiment, cells were trypsinized, counted, and plated either in 96 wells or in 6 well plates. […]
The expression of nuclear factor kappa-light-chain-enhancer of activated B cells (NF-κB) was evaluated by Western blot analysis. […] Bands were measured densitometrically and their relative density was calculated based on the density of the […] in each sample. […]

Row | melting point | IC50 ([1]; read-out: IC50 (MMP-9)) | IC50 ([1]; catalytic domain of MMP-9 10 nM, substrate 350 nM, 25 °C, pH 7, mean ± SD (n = 3), n.a. = not active, read-out: IC50 Value) | SMILES | ORAC value [2] | ORAC UNITs [2] | effect on NF-κB release [3] | antioxidant activity in words ([2]; delay of fluorescence reduction of fluorescein-AAPH solution)
1 | 137 to 140 °C | 40 nM | – | CC(C(=O)NN1C(=O)CSC1c1ccc(C(=O)O)cc1)c1nsc2ccccc12 (stereo not shown) [Compound 23, 4-(3-{[2-(1,2-Benzothiazol-3-yl)propanoyl]amino}-4-oxo-1,3-thiazolidin-2-yl)benzoic acid] | 0.53 TE/µmol | 0.53 ± 0.17 ORAC unit (μmol of Trolox equi | reduced NF-κB release | –
2 | 257 to 259 °C | – | 300 ± 50 nM | CC(C(=O)NN1C(=O)CSC1c1ccc(O)cc1)c1nsc2ccccc12 (stereo not shown) [Compound 22, 2-(1,2-Benzothiazol-3-yl)-N-[2-(4-hydroxyphenyl)-4-oxo-1,3-thiazolidin-3-yl]propanamide] | – | 1.24 ± 0.09 ORAC unit (μmol of Trolox equi | reduced NF-κB release | excellent antioxidant effectiveness
